Measurements from ChEMBL document CHEMBL1201862, “PubChem BioAssay data set” (2004).
Active and inactive are the calls of the source.

Key:
[1] = biological target: T1, Adenosylmethionine-8-amino-7-oxononanoate aminotransferase (Mycobacterium tuberculosis, UniProt P9WQ81); assay: Mycobacterium tuberculosis BioA enzyme inhibitor Measured in Biochemical System Using Plate Reader - 2163-02_Inhibitor_Dose_CherryPick_Activity.; type: functional, Mycobacterium tuberculosis UT205
T1 sequence (P9WQ81 whole entry): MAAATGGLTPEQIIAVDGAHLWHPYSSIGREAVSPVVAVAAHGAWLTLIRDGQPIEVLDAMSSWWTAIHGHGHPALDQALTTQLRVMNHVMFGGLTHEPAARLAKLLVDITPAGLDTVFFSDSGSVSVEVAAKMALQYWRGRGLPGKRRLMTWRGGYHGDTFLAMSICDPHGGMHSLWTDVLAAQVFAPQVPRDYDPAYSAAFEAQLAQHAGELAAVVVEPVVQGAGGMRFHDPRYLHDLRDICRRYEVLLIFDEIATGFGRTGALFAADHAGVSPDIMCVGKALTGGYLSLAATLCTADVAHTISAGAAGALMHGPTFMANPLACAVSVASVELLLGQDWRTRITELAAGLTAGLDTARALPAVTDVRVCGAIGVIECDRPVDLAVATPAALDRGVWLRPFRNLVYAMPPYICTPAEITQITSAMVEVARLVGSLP

[2] = biological target: T2, Rac GTPase-activating protein 1 (Homo sapiens, UniProt Q9H0H5); assay: blockers of MgcRacGAP-driven Rac1 GTP hydrolysis – biochemical, ADP Hunter fluorescence, primary and confirmatory, confirmation (AID 624330); type: functional
T2 sequence (Q9H0H5 whole entry): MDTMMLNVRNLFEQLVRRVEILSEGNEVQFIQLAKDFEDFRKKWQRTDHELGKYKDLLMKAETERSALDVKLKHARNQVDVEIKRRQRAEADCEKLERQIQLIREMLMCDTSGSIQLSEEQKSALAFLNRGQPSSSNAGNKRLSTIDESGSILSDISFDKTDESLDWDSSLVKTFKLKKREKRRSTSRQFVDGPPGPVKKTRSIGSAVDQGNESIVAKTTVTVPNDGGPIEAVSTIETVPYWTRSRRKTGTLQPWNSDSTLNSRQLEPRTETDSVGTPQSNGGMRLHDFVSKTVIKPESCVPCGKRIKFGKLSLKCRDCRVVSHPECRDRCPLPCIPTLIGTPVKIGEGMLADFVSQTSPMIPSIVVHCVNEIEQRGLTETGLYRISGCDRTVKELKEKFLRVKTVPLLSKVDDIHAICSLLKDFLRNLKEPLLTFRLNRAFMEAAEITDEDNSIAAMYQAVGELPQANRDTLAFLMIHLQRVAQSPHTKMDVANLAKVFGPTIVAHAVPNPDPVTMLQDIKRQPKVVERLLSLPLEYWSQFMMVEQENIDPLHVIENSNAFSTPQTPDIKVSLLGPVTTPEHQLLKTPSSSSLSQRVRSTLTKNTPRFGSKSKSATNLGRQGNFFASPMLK

[3] = biological target: ADP-ribosylation factor GTPase-activating protein 1 (Rattus norvegicus, UniProt Q62848); assay: Fluorescence polarization-based biochemical high throughput dose response screening assay to identify inhibitors of ADP-ribosylation factor GTPase activating protein 1 (ARFGAP1).; type: functional
[4] = NIH-3T3 fibroblast cytotoxicity, dose response, cytotoxicity control, cell-based, fluorescence, Alamar Blue, secondary assay (AID 2327); type: functional;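 also: NIH-3T3 mouse fibroblasts cultured with fluconazole at 8 µg/mL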
[5] = fluconazole-exposed Candida albicans growth modulators – fluorescence, retest, confirmation (AID 2467); type: functional, cell-based
[6] = biological target: T3, Apoptotic protease-activating factor 1 (Homo sapiens, UniProt O14727); type: functional
T3 sequence (O14727 whole entry): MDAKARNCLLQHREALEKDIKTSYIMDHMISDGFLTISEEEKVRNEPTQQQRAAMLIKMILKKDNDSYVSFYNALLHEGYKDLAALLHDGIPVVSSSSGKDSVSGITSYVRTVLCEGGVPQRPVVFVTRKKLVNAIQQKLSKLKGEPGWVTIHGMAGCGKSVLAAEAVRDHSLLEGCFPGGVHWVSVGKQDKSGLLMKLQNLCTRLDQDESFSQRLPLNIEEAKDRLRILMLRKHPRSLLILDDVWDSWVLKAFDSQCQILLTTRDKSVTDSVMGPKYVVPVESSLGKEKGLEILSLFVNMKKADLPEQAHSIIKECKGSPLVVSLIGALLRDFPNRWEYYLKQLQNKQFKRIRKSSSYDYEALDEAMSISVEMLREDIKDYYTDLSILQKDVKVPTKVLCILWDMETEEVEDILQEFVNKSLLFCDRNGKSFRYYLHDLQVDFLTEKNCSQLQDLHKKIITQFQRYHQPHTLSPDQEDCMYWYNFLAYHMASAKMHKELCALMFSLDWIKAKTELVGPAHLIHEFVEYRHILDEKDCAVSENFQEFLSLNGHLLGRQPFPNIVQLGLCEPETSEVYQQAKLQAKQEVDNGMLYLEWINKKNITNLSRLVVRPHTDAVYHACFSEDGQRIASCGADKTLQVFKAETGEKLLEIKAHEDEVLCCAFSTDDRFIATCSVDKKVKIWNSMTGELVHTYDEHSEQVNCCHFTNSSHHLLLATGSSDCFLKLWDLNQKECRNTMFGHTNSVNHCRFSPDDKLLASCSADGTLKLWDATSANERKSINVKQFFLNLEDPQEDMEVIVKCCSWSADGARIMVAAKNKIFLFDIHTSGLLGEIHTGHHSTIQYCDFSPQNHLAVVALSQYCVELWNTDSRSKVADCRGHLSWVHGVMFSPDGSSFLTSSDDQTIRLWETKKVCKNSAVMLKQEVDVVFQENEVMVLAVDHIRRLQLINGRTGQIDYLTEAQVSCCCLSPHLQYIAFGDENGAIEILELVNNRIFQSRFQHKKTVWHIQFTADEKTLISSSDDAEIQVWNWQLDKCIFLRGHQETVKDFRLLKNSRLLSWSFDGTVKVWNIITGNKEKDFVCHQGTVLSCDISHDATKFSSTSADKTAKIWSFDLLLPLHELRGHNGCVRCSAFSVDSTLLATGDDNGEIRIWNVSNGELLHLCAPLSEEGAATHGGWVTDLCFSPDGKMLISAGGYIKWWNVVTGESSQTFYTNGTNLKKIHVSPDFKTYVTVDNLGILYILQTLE

[7] = biological target: T4, Sentrin-specific protease 1 (Homo sapiens, UniProt Q9P0U3); assay: SENP1 catalytic domain blockers, concentration series – biochemical, kinetic FRET, dose response (AID 651697); type: functional; conditions: read-out: IC50_Mean
T4 sequence (Q9P0U3 whole entry): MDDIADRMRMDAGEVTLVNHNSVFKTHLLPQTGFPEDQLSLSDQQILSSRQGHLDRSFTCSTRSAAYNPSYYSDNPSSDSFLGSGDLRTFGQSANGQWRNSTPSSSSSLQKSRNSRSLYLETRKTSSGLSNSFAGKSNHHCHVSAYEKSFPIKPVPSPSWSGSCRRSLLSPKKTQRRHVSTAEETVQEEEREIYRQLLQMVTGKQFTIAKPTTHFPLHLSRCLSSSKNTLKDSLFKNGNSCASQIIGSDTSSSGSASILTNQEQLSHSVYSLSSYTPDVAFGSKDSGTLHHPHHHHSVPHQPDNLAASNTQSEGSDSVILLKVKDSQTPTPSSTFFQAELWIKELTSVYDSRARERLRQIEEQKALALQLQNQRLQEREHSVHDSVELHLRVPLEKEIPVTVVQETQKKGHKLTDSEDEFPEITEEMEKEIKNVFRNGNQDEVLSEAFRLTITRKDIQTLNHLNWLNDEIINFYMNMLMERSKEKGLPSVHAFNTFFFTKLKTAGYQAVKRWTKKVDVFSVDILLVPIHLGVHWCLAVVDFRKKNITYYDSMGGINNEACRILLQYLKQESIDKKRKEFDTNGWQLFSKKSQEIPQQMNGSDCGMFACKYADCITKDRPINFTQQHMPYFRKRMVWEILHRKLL

[8] = biological target: T4, Sentrin-specific protease 1; assay: Dose response confirmation of small molecule inhibitors of the catalytic domain of the SUMO protease, SENP1 in a FRET assay.; type: functional; conditions: read-out: IC50_Mean
[9] = Counterscreen for inhibitors of Trypanosoma brucei methionyl tRNA synthetase (MetRS): Luminescence-based cell-based high throughput dose response assay to identify compounds that are cytotoxic to Jurkat human T lymphocyte cells.; type: functional
[10] = biological target: T5, DNA repair and recombination protein RAD54-like (Homo sapiens, UniProt Q92698); assay: RAD54 Holliday junction migration blockers – biochemical, fluorescence, cherry-picked samples, dose series, confirmation (AID 651657); type: functional
T5 sequence (Q92698 whole entry): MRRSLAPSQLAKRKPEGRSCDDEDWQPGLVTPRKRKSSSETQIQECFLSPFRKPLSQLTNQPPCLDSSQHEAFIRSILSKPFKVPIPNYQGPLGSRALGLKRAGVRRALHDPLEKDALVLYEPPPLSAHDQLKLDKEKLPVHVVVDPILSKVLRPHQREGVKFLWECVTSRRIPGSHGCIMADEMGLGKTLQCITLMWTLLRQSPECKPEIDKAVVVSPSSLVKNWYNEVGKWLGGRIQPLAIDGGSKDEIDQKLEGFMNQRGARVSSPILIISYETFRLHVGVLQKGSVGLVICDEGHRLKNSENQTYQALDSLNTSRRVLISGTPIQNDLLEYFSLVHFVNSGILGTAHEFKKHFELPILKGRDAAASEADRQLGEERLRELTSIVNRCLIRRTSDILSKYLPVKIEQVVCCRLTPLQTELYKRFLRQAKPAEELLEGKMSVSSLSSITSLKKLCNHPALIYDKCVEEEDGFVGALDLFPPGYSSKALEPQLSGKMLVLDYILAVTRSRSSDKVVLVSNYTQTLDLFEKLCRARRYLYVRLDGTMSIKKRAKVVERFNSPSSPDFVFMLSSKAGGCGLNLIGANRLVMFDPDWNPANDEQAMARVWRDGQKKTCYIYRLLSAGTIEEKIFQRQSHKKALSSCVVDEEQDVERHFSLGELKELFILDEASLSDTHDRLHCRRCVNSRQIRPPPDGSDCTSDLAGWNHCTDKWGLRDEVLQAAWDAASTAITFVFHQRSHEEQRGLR

[11] = microbe, parasite or virus in culture; type: functional; conditions: Mycobacterium tuberculosis
[12] = Luminescence Cell-Based Dose Response HTS to Identify Inhibitors of 5'UTR Stem-Loop Driven Prion Protein mRNA Translation in H4 Neuroglioblastoma Cells. [Related pubchem assays: 1827 (Project Summary), 1813 (Primary HTS)]; type: functional
[13] = luciferase reporter signal suppression in cells – H4 neuroglioma cells, luminescence, dose response (AID 1990); type: functional, cell-based
[14] = biological target: T6, Ubiquitin-conjugating enzyme E2 N (Homo sapiens, UniProt P61088); type: functional;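 also: Dose-response confirmation in a TR-FRET assay detecting UBC13-driven polyubiquitin chain formation, inhibition measured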
T6 sequence (P61088 whole entry): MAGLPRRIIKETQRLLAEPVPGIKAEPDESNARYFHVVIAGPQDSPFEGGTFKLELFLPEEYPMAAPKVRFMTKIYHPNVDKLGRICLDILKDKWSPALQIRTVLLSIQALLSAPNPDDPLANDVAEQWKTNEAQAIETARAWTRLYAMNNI

INS1 = assay: INS-1E survival protection against cytokine death – cell-based, luminescence, retest, dose response (AID 449756); type: functional; conditions: Rattus norvegicus;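 also: cell death triggered by IL-1 beta plus TNF-alpha plus IFN-gamma mixture; protective hits raise ATP signal compared with cytokine alone wells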
[15] = alpha-synuclein stem-loop luciferase translation blockers – H4 neuroglioma cells, luminescence, confirmation (AID 1988); type: functional, cell-based
BJ [16] = assay: BJ-TERT fibroblast viability loss – cell-based, RAS-independent, luminescence, dose response (AID 1933); type: functional; conditions: Homo sapiens
[17] = DRD fibroblast viability loss – cell-based, non-viral oncogenic, luminescence, dose response (AID 1934); type: functional; conditions: Homo sapiens
BJ [18] = assay: BJ-TERT-LT-ST fibroblast viability loss – cell-based, RAS-independent, luminescence, dose response (AID 1935); type: functional; conditions: Homo sapiens;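 also: BJ fibroblasts immortalized with TERT plus LT and ST oncogenes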
BJ [19] = assay: cells; type: functional, cell-based; conditions: Homo sapiens

ADP-ribosylation factor GTPase-activating protein 1, sequence (Q62848 whole entry): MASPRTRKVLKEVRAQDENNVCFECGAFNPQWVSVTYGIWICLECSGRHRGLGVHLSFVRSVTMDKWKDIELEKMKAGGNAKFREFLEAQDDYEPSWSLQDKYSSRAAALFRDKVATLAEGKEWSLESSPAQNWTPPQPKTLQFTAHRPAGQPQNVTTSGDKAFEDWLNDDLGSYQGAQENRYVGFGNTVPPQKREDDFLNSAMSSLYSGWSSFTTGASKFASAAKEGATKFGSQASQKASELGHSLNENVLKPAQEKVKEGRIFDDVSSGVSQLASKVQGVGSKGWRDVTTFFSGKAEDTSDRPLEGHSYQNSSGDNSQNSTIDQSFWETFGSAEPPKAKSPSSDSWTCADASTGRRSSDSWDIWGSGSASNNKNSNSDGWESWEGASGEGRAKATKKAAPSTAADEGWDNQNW

## COc1ccc(NC2CCCN(C(=O)c3ccc(C(C)=O)s3)C2)cc1 (stereo not given)
[1]
  AC50: 1.99 µM (active)
[2]
  IC50: 80.9 µM (active)

## Nc1nc(/C=C/c2cccnc2)nc(-c2ccccc2O)n1
[3]
  IC50: 165 µM (inactive)

## COc1cc(/C=C/C(=O)Nc2cccnc2)cc(OC)c1OC
[1]
  AC50: 0.629 µM (active)
[4]
  EC50: > 160 µM (inactive)
[5]
  EC50: > 38 µM (not active)

## COc1ccc2[nH]c(=O)c(CNc3ccccc3OC)cc2c1
[6]
  IC50: 51.4 µM (active)

## COc1cc(OC)cc(C(=O)Nc2ccccc2-c2nnn(CC(=O)Nc3cc(C)on3)n2)c1
[3]
  IC50: 72.6 µM (inactive)

## Nc1ccc2c(c1)C(=O)N(CC1CCCO1)C2=O (stereo not given)
[7]
  IC50: 11.1 µM (active)
[8]
  IC50: 8.2 µM (active)

## O=C(Cc1ccc(Br)cc1)NNC(=O)Nc1ccc(Cl)cc1
[9]
  IC50: 83.3 µM (inactive)

## Nc1c(C(=O)NCCN2CCOCC2)c2nc3ccccc3nc2n1-c1ccccc1
[10]
  AC50: 52 µM (active)

## Cc1ccc(NC2=C(C(=O)c3ccccc3)N(C)S(=O)(=O)c3ccccc32)cc1
[7]
  IC50: 26.2 µM (inactive)
[8]
  IC50: 15.4 µM (active)

## COc1ccc(CNC[C@@H](CCCCN(C)Cc2ccc(OC)cc2)N2C[C@H](c3ccccc3)N(CCc3ccc(Cl)c(Cl)c3)C(=O)C2=O)cc1
[11]
  CC50: 6.46 µM (active)
[12]
  EC50: > 120 µM (not active)
[13]
  EC50: > 120 µM (not active)
[14]
  IC50: > 20 µM (inactive)
INS1
  AC50: 7.7 µM (active)
[15]
  EC50: 9.63 µM (active)
[6]
  IC50: 46.4 µM (active)

## O=C(c1ccc([N+](=O)[O-])o1)N(Cc1nnc(-c2ccccc2Cl)o1)C1CC1
[6]
  IC50: > 100 µM (inactive)

## COc1ccc(-c2cc(NC=O)c3ncc(-c4cccc(C(=O)N(C)C)c4)n3c2)cn1
[1]
  AC50: 11.2 µM (active)

## COc1ccc(/C=N/NC(=O)CCn2cnc(-c3ccccc3)c2-c2ccccc2)cc1
BJ [16]
  EC50: 1.9 µM (active)
[17]
  EC50: 1.68 µM (active)
BJ [18]
  EC50: 1.75 µM (active)
BJ [19]
  EC50: 46.3 µM (active)
[6]
  IC50: 25.2 µM (active)

## O=c1[nH]c2cc3ccccc3cc2nc1-c1nnnn1Cc1ccccc1
[7]
  IC50: 15.8 µM (active)
[8]
  IC50: 7.19 µM (active)
